Results reported in the supplement of paper PMC6045584.
± gives the standard deviation of the averaged measurements.

Key:
2-METHOXYESTRADIOL = compound: COc1cc2c(cc1O)CC[C@@H]1[C@@H]2CC[C@]2(C)[C@@H](O)CC[C@@H]12 [2-METHOXYESTRADIOL]; test: surviving fraction relative to DMSO-only wells; higher = less growth inhibition; settings: exposure time: 5 days
Outline: (§1)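 Continuous five-day exposure to inhibitors at 0.5, 1, 5, 10, 50, 100, 500 and 1000 nM started 24 hours after log-phase tumour cell lines were seeded at 250–500 cells per well in 384-well plates. Luminescence was read after 10 minutes at room temperature. Viability is given as surviving fraction, meaning CellTiter-Glo luminescence normalised to the median of DMSO-only wells.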

NUTLIN3 = compound: COc1ccc(C2=N[C@@H](c3ccc(Cl)cc3)[C@@H](c3ccc(Cl)cc3)N2C(=O)N2CCNC(=O)C2)c(OC(C)C)c1 [NUTLIN3]; test: as above; settings: exposure time: 5 days
Outline: as §1

| Test System | surviving fraction (2-METHOXYESTRADIOL; 0.5 nM) | surviving fraction (2-METHOXYESTRADIOL; 1 nM) | surviving fraction (2-METHOXYESTRADIOL; 5 nM) | surviving fraction (2-METHOXYESTRADIOL; 10 nM) | surviving fraction (2-METHOXYESTRADIOL; 50 nM) | surviving fraction (2-METHOXYESTRADIOL; 100 nM) | surviving fraction (2-METHOXYESTRADIOL; 500 nM) | surviving fraction (2-METHOXYESTRADIOL; 1000 nM) | surviving fraction (NUTLIN3; 0.5 nM) | surviving fraction (NUTLIN3; 1 nM) | surviving fraction (NUTLIN3; 5 nM) | surviving fraction (NUTLIN3; 10 nM) | surviving fraction (NUTLIN3; 50 nM) | surviving fraction (NUTLIN3; 100 nM) | surviving fraction (NUTLIN3; 500 nM) | surviving fraction (NUTLIN3; 1000 nM) |
| --- | --- | --- | --- | --- | --- | --- | --- | --- | --- | --- | --- | --- | --- | --- | --- | --- |
| CCK81 LARGE INTESTINE | 0.764 ± 0.17 | 0.801 ± 0.13 | 0.773 ± 0.027 | 0.752 ± 0.059 | 0.776 ± 0.076 | 0.779 ± 0.03 | 0.574 ± 0.076 | 0.249 ± 0.02 |  |  |  |  |  |  |  |  |
| G292 BONE | 0.988 ± 0.035 | 0.956 ± 0.026 | 1.04 ± 0.035 | 0.994 ± 0.049 | 0.982 ± 0.061 | 0.919 ± 0.029 | 0.39 ± 0.013 | 0.234 ± 0.017 | 0.982 ± 0.028 | 0.955 ± 0.03 | 1.06 ± 0.047 | 1.05 ± 0.032 | 1.03 ± 0.044 | 0.989 ± 0.026 | 1.01 ± 0.045 | 0.979 ± 0.054 |
| HCC38 BREAST | 1.28 ± 0.069 | 1.28 ± 0.15 | 1.12 ± 0.26 | 1.21 ± 0.18 | 1.35 ± 0.15 | 1.02 ± 0.36 | 0.76 ± 0.074 | 0.349 ± 0.028 | 1.19 ± 0.29 | 1.23 ± 0.12 | 1.35 ± 0.062 | 1.29 ± 0.12 | 1.28 ± 0.14 | 1.28 ± 0.11 | 1.22 ± 0.22 | 1.26 ± 0.25 |
| HCC70 BREAST | 0.978 ± 0.05 | 1.06 ± 0.064 | 1.03 ± 0.062 | 1.07 ± 0.016 | 1.03 ± 0.14 | 1.01 ± 0.1 | 0.629 ± 0.044 | 0.212 ± 0.043 | 1.03 ± 0.094 | 1.03 ± 0.043 | 1.02 ± 0.063 | 1.05 ± 0.087 | 1.07 ± 0.085 | 1.14 ± 0.055 | 1.04 ± 0.073 | 1.07 ± 0.084 |
| HMLE3 BREAST | 0.913 ± 0.033 | 0.964 ± 0.037 | 0.991 ± 0.059 | 1.05 ± 0.031 | 0.987 ± 0.068 | 0.887 ± 0.059 | 0.937 ± 0.064 | 0.602 ± 0.035 | 0.967 ± 0.059 | 0.985 ± 0.041 | 1.02 ± 0.028 | 0.996 ± 0.085 | 0.982 ± 0.046 | 0.995 ± 0.043 | 0.964 ± 0.025 | 1.02 ± 0.024 |
| HMT3552 BREAST | 1.06 ± 0.034 | 1.04 ± 0.09 | 1.08 ± 0.013 | 0.993 ± 0.015 | 1.11 ± 0.029 | 1.17 ± 0.066 | 0.343 ± 0.025 | 0.126 ± 0.008 | 0.97 | 0.984 | 1 | 1 | 1.19 | 1.21 | 1.12 | 1.14 |
| HS578T BREAST | 0.859 ± 0.075 | 0.947 ± 0.024 | 0.946 ± 0.13 | 0.917 ± 0.046 | 1.05 ± 0.23 | 1.16 ± 0.096 | 0.499 ± 0.08 | 0.188 ± 0.0064 | 1.11 ± 0.067 | 0.926 ± 0.069 | 0.883 ± 0.19 | 0.8973 ± 0.0049 | 0.92 ± 0.041 | 0.936 ± 0.072 | 0.913 ± 0.14 | 0.921 ± 0.06 |
